Experiments:
[1] = set-up: method as in PMID 15269190; conditions: mice, i.p. dosing; cited from earlier work
[2] = set-up: method as in printed; conditions: mice; ref not given; cited from earlier work
mdx mouse model = tested on: mdx mouse model; set-up: method as in PMID 21137017; conditions: i.p.; cited from earlier work
D2.B10 mice [3] = assay: Grip strength test (FNmax) in D2.B10 mice; assay type: in vivo, mouse (D2.B10-Dmd^mdx/J)
Source text: (§1) For the efficacy studies, C57BL/10 J (Stock No: 000665) wild type (wt) and C57BL/10ScSn-Dmd^mdx/J (Stock No: 001801) 7–8-week-old male mice, DBA/2J wt (Stock No: 000671), and D2.B10-Dmd^mdx/J (Stock No: 013141) 6–7-week-old male mice were purchased from The Jackson Laboratories (Bar Harbor, Maine, USA). After 5 days of acclimatization in the animal facility, mice were randomized into different treatment groups based on their BW. C57BL/10J wt mice were assigned to the naive wt group (healthy mice that received no treatment, but were subjected to functional tests), whereas mdx mice were assigned to the following groups (9 mice/group; 4–5 mice/cage): naive mdx (mice that received no treatment, but were subjected to functional tests), vehicle (0.5% methylcellulose, p.o.), and Givinostat (0.1, 0.3, 1, 5, 10, 25, and 37.5 mg/kg, p.o.). DBA/2J mice were assigned to the naive wt group (healthy mice that received no treatment, but were subjected to functional tests), whereas D2.B10 mice were assigned to the following groups (12–13 mice/group; 4–5 mice/gage): vehicle (filtered tap water, p.o.), Givinostat (1, 5, 10, and 37.5 mg/kg, p.o.), prednisone 1 mg/kg, and Deflazacort 1 mg/kg (i.p.).
(§2) In the efficacy studies, Givinostat powder (ITF2357) was suspended in 0.5% methylcellulose (Sigma-Aldrich) and administered p.o. (by gavage) at the doses of 0.1, 0.3, 1, 5, 10, 25, and 37.5 mg/kg qdx5x15weeks (administration volume per mouse: 10 mL/kg) in mdx mice (see Additional Figure 1A). Vehicle-treated mdx mice received 0.5% methylcellulose suspension. Givinostat suspension was stored at + 4 °C, and it was freshly prepared every 7 days. Probably due to the impairment of their tongue and masticatory muscles, the oral gavage procedure turned out to be difficult to perform, and chronic treatment of D2.B10 mice by this route was considered to bear a high risk of damaging the esophagus. For this reason, Givinostat was administered in the drinking water. Givinostat was dissolved in filtered tap water and was administered in drinking water (throughout 24 h) for 105 days at the dose of 1, 5, 10, and 37.5 mg/kg/day, according to a daily estimate of water consumption of 4 ml/mouse/day. Water consumption was weekly monitored throughout the entire duration of the study weighing the bottle of each cage (maximum 4 mice per cage). Prednisone and Deflazacort powder (Sigma-Aldrich) was dissolved in 2% DMSO (Sigma-Aldrich) and diluted in sterile saline on injection days. Both drugs were administered weekly (for 15 weeks) by i.p. injection at the dose of 1 mg/kg in a volume of 10 mL/kg. Givinostat and steroid treatments started on days 7 and 9 of the experimental plan, respectively (see Additional Figure 1B). All mice were monitored daily and tolerability was evaluated on the basis of BW and clinical signs.
In both efficacy studies, the effectiveness of treatments was evaluated every week by measuring the forelimb strength by a grip strength meter (Ugo Basile SRL, Italy). BW of mdx (see Additional Figure 2) and D2.B10 mice (see Additional Figure 3) was also measured in order to normalize the absolute grip strength of each mouse with respect to its BW. The protocol provides 5 measurements for each mouse (the procedure was compliant with the standard operating procedures of TREAT–NMD Neuromuscular Network). The highest recorded value of maximal normalized strength (FNmax) obtained for each mouse at all the time points (from T0 to T15) was used for further analysis.
After taking baseline readings for behavioral assays (FNmax and distance run by the animals), mice were re-randomized based on these two parameters, also considering the previous randomization performed on their BW.
The grip strength and run to exhaustion tests were performed during the light-cycle phase, in the early hours of the morning (8:00–11:30 am). […]

D2.B10 mice [4] = assay: Treadmill run to exhaustion test in D2.B10 mice; assay type: in vivo, mouse (D2.B10-Dmd^mdx/J); conditions: Deflazacort, prednisone 1 mg/kg, lower doses of Givinostat
Source text: as §1, §2
Run to exhaustion performance of mdx and D2.B10 mice was evaluated every 14 or 21 days, respectively, using a treadmill apparatus (Ugo Basile SRL, Italy). The exhaustion protocol consisted in an initially horizontal running at 5 m/min for 5 min after which the speed was increased 1 m/min every minute until exhaustion (the procedure was compliant with the standard operating procedures of TREAT–NMD Neuromuscular Network). […]
After taking baseline readings for behavioral assays (FNmax and distance run by the animals), mice were re-randomized based on these two parameters, also considering the previous randomization performed on their BW. […]

D2.B10 mice [5] = assay: Muscle fibrosis by Sirius Red staining in D2.B10 mice; assay type: in vivo, mouse (D2.B10-Dmd^mdx/J)
Source text: (§3) Tibialis anterior (TA), gastrocnemius (GAS), DIA, and heart were collected from mice maintained under isoflurane anesthesia and sacrificed by cervical dislocation. These muscles were collected from C57BL/10J wt and mdx (5 mice/group) at the end of treatments and from DBA/2J wt and D2.B10 mice (5 mice/group) at two different time points to be examined by a pathologist (for more details see Additional Table 1). Due to the results obtained by the functional tests, muscles from only some treatment groups were analyzed in both DMD models (see Additional Table 1). All the collected muscles were fixed in 10% buffered formalin solution (Bio-optica, Milan, Italy) at + 4 °C for at least 48 h. After fixation, muscular samples were transversely trimmed, caged, and paraffin embedded overnight with an Automated Vacuum Tissue Processor Floor (ETP, Histo-Line Laboratories) and included in paraffin blocks. Serial transverse cross-sections (4 μm thick) were cut with a microtome (Leica RM 2255), collected onto uncoated glass slides, and stained using a standard protocol for hematoxylin and eosin (Mayer hematoxylin & Aqueous G Eosin 1%, Bio-Optica) and Sirius Red staining (Direct Red 80, Sigma-Aldrich). For the image analysis and quantitation, hematoxylin and eosin- and Sirius Red-stained slides were examined with an Olympus BX51 light microscope. From each sample, 1 to 3 random microphotographs at the magnification of × 4 and × 10 (TA, GAS and heart) or × 20 (DIA) were collected using Image-Pro Plus system. The digital images were processed by a pathologist using ImageJ software (U.S. National Institutes of Health, Bethesda, MD, USA). To quantify CSA and centralized nuclei (%) on hematoxylin and eosin-stained sections, one hundred myofibers were manually measured for each muscle/mouse using a tablet pen (Wacom Intruos) and analyzed by the ImageJ software after a linear calibration of 150 μm. The fibrotic area, corresponding to the area stained in red, was compared to the total area of the tissue section, and the results were expressed as percentage fibrosis. The % of fibrosis of muscles in the different treatment groups was expressed by averaging the three values obtained from each muscle.

D2.B10 mice [6] = assay: Myofiber cross-sectional area (CSA) in D2.B10 mice; assay type: in vivo, mouse (D2.B10-Dmd^mdx/J); conditions: D2.B10 muscles, 1 mg/kg i.p. weekly
Source text: as §3
The deciles of the CSA of the animals treated with Givinostat at the different doses were plotted against the corresponding deciles of the vehicle-treated mice and a linear regression analysis was performed on natural [CSAtreated = b CSAcontrol + a] and log_transformed data [log(CSAtreated) = log(a) + b log(CSAcontrol)]. […] In case of untransformed data, this means that the effect of Givinostat treatment is additive and any decile of the CSAtreatment distribution may be derived from the control data summing up a constant quantity (S) to each fiber AREA of the control group (CSAtreated = CSAcontrol + S). In case of log_transformed data, the effect of Givinostat has to be considered as a multiplicative factor on any generic fiber of the muscle under evaluation, whose size, after the treatment, results K times larger in comparison to the control group value (CSAtreated […] = K × CSAcontrol, with K = 10^a). The S or K parameter values were then determined through an iterative estimation procedure, based on sum of squares (SSQ) minimization, directly comparing the CSA distribution observed in treated animals with that obtained summing up the S value or multiplying by K the CSA values of the control group.

[7] = Body weight of D2.B10 mice; assay type: in vivo, mouse (D2.B10-Dmd^mdx/J); conditions: mouse, in vivo
Procedure: as §2, with “Givinostat and steroid treatments started on days 7 and 9 of the experimental plan, respectively (see Additional Figure 1B).” left out
In both efficacy studies, the effectiveness of treatments was evaluated every week by measuring the forelimb strength by a grip strength meter (Ugo Basile SRL, Italy). BW of mdx (see Additional Figure 2) and D2.B10 mice (see Additional Figure 3) was also measured in order to normalize the absolute grip strength of each mouse with respect to its BW. […] The highest recorded value of maximal normalized strength (FNmax) obtained for each mouse at all the time points (from T0 to T15) was used for further analysis.

CC(/C=C/C(=O)NO)=C\[C@@H](C)C(=O)c1ccc(N(C)C)cc1 [TSA, trichostatin A]
Half-life [1]: 6.3 min | Peak plasma concentrations [1]: micromolar

O=C(CCCCCCC(=O)Nc1ccccc1)NO [Vorinostat]
Oral bioavailability [2]: very poor oral bioavailability | Dose of peak functional and histologic effects (bell-shaped dose-response curve) (mdx mouse model): 1.2 mg/kg

CC(=O)OCC(=O)[C@@]12N=C(C)O[C@@H]1C[C@H]1[C@@H]3CCC4=CC(=O)C=C[C@]4(C)[C@H]3[C@@H](O)C[C@@]12C [Deflazacort]
Effect of steroid on FNmax in comparison (D2.B10 mice [3]; 1 mg/kg i.p. weekly, all the treatment period): lower and not significantly different from prednisone | Time interval of significant FNmax improvement (D2.B10 mice [3]; Deflazacort 1 mg/kg i.p. weekly, Givinostat 1 mg/kg): from day 28 to day 90 | Effect on distance run, significance (D2.B10 mice [4]): not statistically significant | Effect of steroid on fibrosis, summary (D2.B10 mice [5]; 1 mg/kg i.p. weekly): effective only in TA | Reduction of fibrosis in DIA (D2.B10 mice [5]; T8): no significant effect | Reduction of fibrosis in TA (D2.B10 mice [5]; T8, Givinostat 37.5 mg/kg, steroids 1 mg/kg, vs vehicle): about 22% | Effect on fibrosis in GAS (D2.B10 mice [5]; T16): No significant effect | Effect of steroid on cross-sectional area and centralized nuclei (D2.B10 mice [6]): unable to affect cross-sectional area or the number of centralized nuclei | Body weight vs vehicle-treated mice [7]: no significant differences

— publication PMC8296708, “The pan HDAC inhibitor Givinostat improves muscle function and histological parameters in two Duchenne muscular dystrophy murine models expressing different haplotypes of the LTBP4 gene” (Skeletal Muscle, 2021)
